In BindingDB's records for doi:10.1016/j.bmcl.2012.08.044 (Lundbeck Research Usa, 2012):

How the values were obtained:
Cytochrome P450 3A4 = Cytochrome P450 3A4 (Homo sapiens, UniProt P08684); experiment: Inhibition of CYP3A4
Cytochrome P450 2D6 = Cytochrome P450 2D6 (Homo sapiens, UniProt P10635); experiment: Inhibition of CYP2D6
Cytochrome P450 2D6, sequence (P10635 whole entry): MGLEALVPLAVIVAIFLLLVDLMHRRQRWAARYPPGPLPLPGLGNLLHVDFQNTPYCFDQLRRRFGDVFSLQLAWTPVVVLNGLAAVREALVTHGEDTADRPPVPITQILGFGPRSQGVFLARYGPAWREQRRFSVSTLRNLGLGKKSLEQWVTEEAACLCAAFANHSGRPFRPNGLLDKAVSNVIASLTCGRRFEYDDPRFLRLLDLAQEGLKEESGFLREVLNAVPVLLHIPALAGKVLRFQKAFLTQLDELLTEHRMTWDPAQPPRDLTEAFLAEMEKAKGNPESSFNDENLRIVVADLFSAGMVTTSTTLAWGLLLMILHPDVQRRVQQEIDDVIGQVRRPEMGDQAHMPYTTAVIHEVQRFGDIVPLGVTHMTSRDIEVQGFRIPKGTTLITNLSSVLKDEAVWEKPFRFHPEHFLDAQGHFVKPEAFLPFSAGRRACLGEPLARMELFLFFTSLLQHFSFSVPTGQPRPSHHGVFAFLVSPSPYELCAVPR

Cytochrome P450 3A4, sequence (P08684 whole entry): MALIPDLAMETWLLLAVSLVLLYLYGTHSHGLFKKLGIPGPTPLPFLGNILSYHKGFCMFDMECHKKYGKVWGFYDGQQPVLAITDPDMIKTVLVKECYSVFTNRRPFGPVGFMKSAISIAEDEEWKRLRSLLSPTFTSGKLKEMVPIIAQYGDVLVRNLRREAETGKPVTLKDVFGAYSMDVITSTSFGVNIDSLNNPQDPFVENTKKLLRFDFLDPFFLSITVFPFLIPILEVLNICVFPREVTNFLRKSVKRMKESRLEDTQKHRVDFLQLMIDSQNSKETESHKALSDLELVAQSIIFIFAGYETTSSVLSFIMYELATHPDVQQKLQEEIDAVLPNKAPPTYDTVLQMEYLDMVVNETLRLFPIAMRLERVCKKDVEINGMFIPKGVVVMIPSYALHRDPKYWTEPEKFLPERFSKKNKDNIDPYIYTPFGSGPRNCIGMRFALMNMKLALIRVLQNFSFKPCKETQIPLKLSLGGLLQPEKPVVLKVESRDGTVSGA

Row | IC50 (Cytochrome P450 3A4) [µM] | IC50 (Cytochrome P450 2D6) [µM] | Structure (SMILES)
1 | 25 | 33 | O=C(C1CCC(F)(F)CC1)N1CC(c2nc(-c3cccc(Cl)c3)no2)C1
2 | 25 | 40 | CC1CCCCC1C(=O)N1CC(c2nc(-c3cccc(F)c3)no2)C1 (centres undefined)
